Patent publication US20220264878A1, “HERBICIDAL COMPOSITION CONTAINING R-TYPE PYRIDYLOXY CARBOXYLIC ACID DERIVATIVE AND USE THEREOF” (Qingdao Kingagroot Chemical Compound Co., Ltd., priority 2019, published 2022)

Columns and labels:
Assay type in all cases: in vivo
Echinochloa caudate = test: Soil sealing treatment, pot culture, fresh weight inhibition (Tables 99, 100)
Protocol: (§1) A method for investigating absolute number was employed, wherein whole seedlings of survival weeds were cut off with a blade along the soil surface, and the fresh weight of the weeds was weighed with an analytical balance. For dead weeds, the fresh weight thereof was zero.
(§2) Theoretical fresh weight inhibition rate of a combination of two active ingredients in each group was calculated by the Gowing method (E0=X+Y−X*Y/100), and then compared with an actually measured inhibition rate (E), thereby effect of the combination (hereafter referred to as combined effect) on weeds was evaluated: the value of E-E0, which was greater than 10%, corresponded to a synergistic effect, the value of E-E0, which was less than −10%, corresponded to an antagonistic effect, and the value of E-E0, which was from −10% to 10%, corresponded to an additional effect. […] Wherein, in the formula, X represented the fresh weight inhibition rate of the active ingredient A in a dosage of P, and Y represented the fresh weight inhibition rate of the active ingredient B in a dosage of Q.
(§3) Echinochloa crusgalli var zelayensis were collected in Huai'an of Jiangsu Province; Echinochloa caudate were collected in Pingluo of Ningxia Province; Echinochloa oryzoides were collected in Qiqiha'er of Heilongjiang Province.
(§4) The culture was carried out in a controllable sunlight greenhouse at 20 to 30° C., in natural light, and relative humidity of 57% to 72%. […] The test soil was placed quantitatively to ¾ of the pots and then watered from the bottom of the pots to completely wet the soil to saturation. The pretreated test weed seeds were uniformly sowed on the surface, then covered with 0.5-2 cm soil according to the seed size, and ready-for use 24 hours after sowing.
(§5) The technical materials were all dissolved in acetone, and diluted with an aqueous solution containing 0.1% emulsifier T-80. The dilution is performed as required.
(§6) A ratio of A to the active ingredient B and amounts thereof in each group depends on the characteristics and toxicity of the two agents, as well as the main application purpose of a corresponding formulation. Based on the pre-tests in this study, the dosage of A and the active ingredient B applied alone and in combination were shown in the tables. Water containing the solvent and emulsifier same with the above groups but free of the agents was used as a blank control.
(§7) 3 pots with 30 weed seeds per pot were treated in one treatment with 4 replications per treatment.
(§8) The pots which were sowed and mulched were evenly placed on a platform with an area of 0.5 m^2, and a solution of agents was sprayed on soil surface thereof by the 3WP-2000-type walking spray tower at a dosage of 675 kg/ha and at a spray pressure of 0.3 MPa. After all the solution was sprayed, the valve was closed. After 30 seconds, the door of the spray tower was opened, and the nutritional bowl was taken out. Then the valve was opened, and the spray tube was cleaned by spraying 50 ml of water.
(§9) This section was same as the section 4) in the post-emergence treatment by performing foliage spray, and was not repeated herein.

[1] = tested on: Echinochloa crusgalli var. zelayensis; test: Soil sealing treatment, pot culture, fresh weight inhibition (Tables 49, 50)
Protocol: as §1, §2, §3, §4, §5, §6, §7, §8, §9

Conyza Canadensis [2] = test: Post-emergence foliage spray, pot culture, fresh weight inhibition (Tables 151-206; 20 days); details: 20 days after treatment
Procedure, shortened: (§10)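 Field-collected weeds grown in pots in a greenhouse (20-30° C., natural light, 57-72% RH), 15 per pot, 3 pots × 4 replicates. Single foliar spray at 4-5 leaves (grasses) or 5-6 leaves (broadleaf) with acetone/0.1% Tween-80 dilutions at 450 kg/ha, 0.3 MPa. Above-ground fresh weight inhibition versus solvent blank at 20 days.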

Veronica didyma = test: as above; details: 20 days after treatment
Procedure, shortened: as §10

Conyza Canadensis [3] = test: Post-emergence foliage spray on Conyza Canadensis with a height of 10 cm, fresh weight inhibition (Tables 207-216; 24 days); details: 24 days after treatment
Protocol: The above weeds were cultivated by a pot culture method. […] Full and uniform weed seeds were selected, soaked in warm water at 25° C. for 6 hours, and germinated in a 28° C. biochemical incubator (darkness). The weed seeds that had just germinatedwere evenly placed on the surface of the soil and then covered with 0.5-1 cm soil according to the sizes of seeds.
The technical materials were all dissolved in acetone, and diluted with an aqueous solution containing 0.1% emulsifier Tween-80. The dilution is performed as required.
A ratio of the active ingredient A to the active ingredient B and amounts thereof in each group depends on the characteristics and toxicity of the two agents, as well as the main application purpose of a corresponding formulation. Based on the pre-tests in this study, the dosage of the active ingredient A and B applied alone and in combination were shown in the tables. Water containing the solvent and emulsifier same with the above groups but free of the agents was used as a blank control.
In the stage of weeds with 6˜8 leaves, the weeds were thinned out to maintain 3 weeds per pot and 30 weeds for each treatment, then continued to be cultured to Conyza Canadensis with a height of 10 cm, and treated.
as §8, with “well-cultured weeds” for “pots which were sowed and mulched”, “the stems and leaves” for “soil surface”, “450” for “675”
A pot-culture method was employed. For the cultivation of weeds, please refer to the Section 1.1), and “Pesticide guidelines for laboratory bioactivity tests—herbicides”. As to a method for applying agents, please refer to the section 2.3.2), that is, a foliage treatment was employed. After the treatment, the weeds were routinely cultured in a greenhouse.
as §1
Wherein, in the formula, X represented the fresh weight inhibition rate of the active ingredient A in a dosage of P, and Y represented the fresh weight inhibition rate of the active ingredient B in a dosage of Q.

Compound	Control effect (%) of A applied alone in corresponding dose (Echinochloa caudate; Table 99, 75 g a.i./ha) [%]	Control effect (%) of A applied alone in corresponding dose (Echinochloa caudate; Table 99, 150 g a.i./ha) [%]	Control effect (%) of A applied alone in corresponding dose (Echinochloa caudate; Table 100, 75 g a.i./ha) [%]	Control effect (%) of A applied alone in corresponding dose (Echinochloa caudate; Table 100, 150 g a.i./ha) [%]	Control effect (%) of A applied alone in corresponding dose ([1]; A2 75 g a.i./ha) [%]	Control effect (%) of A applied alone in corresponding dose ([1]; A2 150 g a.i./ha) [%]	Control effect (%) of A applied alone in corresponding dose (Conyza Canadensis [2]; A alone 75 g a.i./ha) [%]	Control effect (%) of A applied alone in corresponding dose (Conyza Canadensis [2]; A alone 150 g a.i./ha) [%]	Control effect (%) of A applied alone in corresponding dose (Veronica didyma; A alone 75 g a.i./ha) [%]	Control effect (%) of A applied alone in corresponding dose (Veronica didyma; A alone 150 g a.i./ha) [%]	Control effect (%) of A applied alone in corresponding dose (Conyza Canadensis [3]; A alone 60 g a.i./ha) [%]	Control effect (%) of A applied alone in corresponding dose (Conyza Canadensis [3]; A alone 120 g a.i./ha) [%]
C[C@@H](Oc1nc(F)c(Cl)c(N)c1Cl)C(=O)O [Compound A1]	23.4	47.2	23.4	47.2								
C[C@@H](Oc1nc(F)c(Cl)c(N)c1Cl)C(=O)OCC1CCCO1 (stereo partly drawn) [Compound A2]					21.4	45.2	38.1	54.4	19.7	36.6	22.6	47.9
